The source of these data is patent EP1077966B1, “BIPHENYL SULFONYL ARYL CARBOXYLIC ACIDS USEFUL IN THE TREATMENT OF INSULIN RESISTANCE AND HYPERGLYCEMIA” (Wyeth, priority 1998, dated 1999).

As a reminder, the IC50 is the concentration that gives 50% inhibition.

One assay deals with T1, Human recombinant PTP1B (Homo sapiens, UniProt P18031).
T1 construct: made in house
T1 sequence (P18031 1-435): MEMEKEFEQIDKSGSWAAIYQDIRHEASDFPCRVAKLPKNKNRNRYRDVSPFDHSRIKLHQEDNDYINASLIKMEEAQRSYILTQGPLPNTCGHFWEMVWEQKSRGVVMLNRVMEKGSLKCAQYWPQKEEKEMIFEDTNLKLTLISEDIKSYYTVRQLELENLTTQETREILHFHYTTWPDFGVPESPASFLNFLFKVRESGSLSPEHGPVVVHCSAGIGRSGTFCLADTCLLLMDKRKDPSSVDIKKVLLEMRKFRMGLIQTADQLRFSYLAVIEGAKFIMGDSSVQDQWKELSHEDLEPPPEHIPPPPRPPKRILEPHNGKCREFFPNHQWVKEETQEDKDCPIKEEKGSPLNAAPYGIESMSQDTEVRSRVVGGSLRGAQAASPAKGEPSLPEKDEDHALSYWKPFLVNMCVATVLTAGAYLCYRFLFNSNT
Kind of assay: Inhibition of tri-phosphorylated insulin receptor dodecaphosphopeptide dephosphorylation by hPTP1B (malachite green-ammonium molybdate phosphate detection). Type of assay: biochemical. The conditions noted are these: substrate phosphotyrosyl dodecapeptide […] (insulin receptor 1142-1153), 37°C, 30 min, pH 7.4.

The next assay concerns diabetic (ob/ob) mice. Nature of the assay: Blood glucose lowering activity in diabetic (ob/ob) mice. The assay is classed as in vivo. The conditions noted are these: Dose 25 mg/Kg, plasma glucose relative to vehicle treated mice, statistically (p < 0.05) significant. From the text: The procedures used and results obtained are briefly described below.
The non-insulin dependent diabetic (NIDDM) syndrome can be typically characterizes by obesity, hyperglycemia, abnormal insulin secretion, hyperinsulinemia and insulin resistance.
In each test procedure, mice [Male or female ob/ob (C57 B1/6J) and their lean litermates (ob/+ or +/+, Jackson Laboratories) ages 2 to 5 months (10 to 65 g)] of a similar age were randomized according to body weight into 4 groups of 10 mice. The mice were housed 5 per cage and are maintained on normal rodent chow with water ad libitum. Mice received test compound daily by gavage (suspended in 0.5 ml of 0.5% methyl cellulose); dissolved in the drinking water; or admixed in the diet. The dose of compounds given ranges from 2.5 to 200 mg/kg body weight/day. The dose is calculated based on the fed weekly body weight and is expressed as active moiety. […] Control mice received vehicle only.
On the morning of Day 4, 7 or 14 two drops of blood (approximetly 50 ul) were collected into sodium fluoride containing tubes either from the tail vein or after decapitation. […] The plasma was isolated by centrifugation and the concentration of glucose is measured enzymatically on an Abbott V.P. Analyzer.
For each mouse, the percentage change in plasma glucose on Day 4, 7 or 14 is calculated relative to the mean plasma glucose of the vehicle treated mice. […]

Marks after values point to notes of the source that are not given here.

Regarding `O=C(O)c1ccc(S(=O)(=O)Oc2ccc(-c3ccc(-c4c(Cc5ccccc5)oc5ccccc45)cc3)cc2[N+](=O)[O-])cc1O` [Example 7, 4-[4'-(2-Benzyl-benzofuran-3-yl)-3-nitro-biphenyl-4-yloxysulfonyl]-2-hydroxy-benzoic acid], at Human recombinant PTP1B, the IC50 is 29 nM.
As to `O=C(O)c1ccc(S(=O)(=O)Oc2c(Br)cc(-c3ccc(-c4c(Cc5ccccc5)sc5ccccc45)cc3)cc2Br)cc1O` [Example 13, 4-[4'-(2-Benzyl-benzo[b]thiophen-3-yl)-3,5-dibromo-biphenyl-4-yloxysulfonyl]-2-hydroxy-benzoic acid], the IC50 on Human recombinant PTP1B was 30 nM. Besides, the “% Change Glucose from Vehicle” value in the assay with diabetic (ob/ob) mice is listed as -24.6^a %.
For the compound `O=C(O)c1ccc(S(=O)(=O)Oc2ccc(-c3ccc(-c4c(Cc5ccccc5)sc5ccccc45)cc3)cc2)cc1O` [Example 11, 4-[4'-(2-Benzyl-benzo[b]thiophen-3-yl)-biphenyl-4-yloxysulfonyl]-2-hydroxy-benzoic acid], at Human recombinant PTP1B, the IC50 worked out at 28 nM.
As to `Cc1cc(-c2ccc(-c3c(Cc4ccccc4)oc4ccccc34)cc2)cc(C)c1OS(=O)(=O)c1ccc(C(=O)O)c(O)c1` [Example 6, 4-[4'-(2-Benzyl-benzofuran-3-yl)-3,5-dimethyl-biphenyl-4-yloxysulfonyl]-2-hydroxy-benzoic acid], the IC50 at Human recombinant PTP1B was 34 nM.
On to `O=C(O)c1ccc(S(=O)(=O)Oc2ccc(-c3ccc(-c4coc5ccccc45)cc3)cc2)cc1O` [Example 5], for which, at Human recombinant PTP1B, the IC50 amounted to 354 nM.
Regarding `O=C(O)c1ccc(S(=O)(=O)Oc2ccc(-c3ccc(-c4c(C(=O)c5ccccc5)oc5ccccc45)cc3)cc2C2CCCC2)cc1O` [Example 9, 4-[4'-(2-Benzoyl-benzofuran-3-yl)-3-cyclopentyl-biphenyl-4-yloxysulfonyl]-2-hydroxy-benzoic acid], on Human recombinant PTP1B, the IC50 turned out to be 40 nM.
In the case of `Cc1sc(Cc2ccccc2)c(-c2ccc(-c3ccc(OS(=O)(=O)c4ccc(C(=O)O)c(O)c4)cc3)cc2)c1C` [Example 10, 4-[4'-(2-Benzyl-4,5-dimethyl-thiophen-3-yl)-biphenyl-4-yloxysulfonyl]-2-hydroxy-benzoic acid], the IC50 at Human recombinant PTP1B came out at 32 nM.
On the same count and under the same terms, the same measure for `O=C(O)c1ccc(S(=O)(=O)Oc2ccc(-c3ccc(-c4c(Cc5ccccc5)sc5ccccc45)cc3)cc2Br)cc1O` [Example 12, 4-[4'-(2-Benzyl-benzo[b]thiophen-3-yl)-3-bromo-biphenyl-4-yloxysulfonyl]-2-hydroxy-benzoic acid]: 24 nM; for `O=C(O)c1cc(S(=O)(=O)Oc2ccc(-c3ccc(-c4c(Cc5ccccc5)oc5ccccc45)cc3)cc2)ccc1O` [Example 2, 5-[4'-(2-Benzyl-benzofuran-3-yl)-biphenyl-4-yloxysulfonyl]-2-hydroxy-benzoic acid]: 26 nM.
`O=C(O)c1ccc(S(=O)(=O)Oc2ccc(-c3ccc(-c4c(C(=O)c5ccccc5)oc5ccccc45)cc3)cc2[N+](=O)[O-])cc1O` [Example 8, 4-[4'-(2-Benzoyl-benzofuran-3-yl)-3-nitro-biphenyl-4-yloxysulfonyl]-2-hydroxy-benzoic acid]: the IC50 on Human recombinant PTP1B stood at 178 nM.
As for `O=C(O)c1ccc(S(=O)(=O)Oc2ccc(-c3ccc(-c4c(Cc5ccccc5)oc5ccccc45)cc3)cc2)cc1` [Example 3, 4-[4'-(2-Benzyl-benzofuran-3-yl)-biphenyl-4-yloxysulfonyl]-benzoic acid], the IC50 at Human recombinant PTP1B turned out to be 75 nM.
Same read-out and setting: the result for `O=C(O)c1ccc(S(=O)(=O)Oc2ccc(-c3ccc(-c4c(Cc5ccccc5)oc5ccccc45)cc3)cc2)cc1O` [Example 1, 4-[4'-(2-Benzyl-benzofuran-3-yl)-biphenyl-4-yloxysulfonyl]-2-hydroxy-benzoic acid] reads 39 nM; that for `O=C(O)c1cccc(S(=O)(=O)Oc2ccc(-c3ccc(-c4c(Cc5ccccc5)oc5ccccc45)cc3)cc2)c1` [Example 4, 3-[4'-(2-Benzyl-benzofuran-3-yl)-biphenyl-4-yloxysulfonyl]-benzoic acid], 106 nM.
